Experimental data taken from patent publication US6737383B1, “Herbicidal oxadiazolidines” (priority 1999, dated 2004).

What was measured:
blackgrass = test: Test B pre/postemergence blackgrass; assay type: in vivo, Alopecurus myosuroides
Summary of the method: (§1)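 Test chemicals in a non-phytotoxic solvent mixture with surfactant were sprayed preemergence onto planted seeds and postemergence onto plants 2 to 18 cm tall (1- to 4-leaf stage). After twelve to sixteen days in a greenhouse, injury was visually rated against untreated controls from 0 (no effect) to 10 (complete control).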

surinam grass = test: Test B pre/postemergence surinam grass; assay type: in vivo, Brachiaria decumbens
Summary of the method: as §1

cocklebur = test: Test B pre/postemergence cocklebur; assay type: in vivo, Xanthium strumarium
Summary of the method: as §1

corn = test: Test B pre/postemergence corn; assay type: in vivo, Zea mays
Summary of the method: as §1

crabgrass = test: Test B pre/postemergence crabgrass; assay type: in vivo, Digitaria sanguinalis
Summary of the method: as §1

giant foxtail = test: Test B pre/postemergence giant foxtail; assay type: in vivo, Setaria faberii
Summary of the method: as §1

pigweed = test: Test B pre/postemergence pigweed; assay type: in vivo, Amaranthus retroflexus
Summary of the method: as §1

rape = test: Test B pre/postemergence rape; assay type: in vivo, Brassica napus
Summary of the method: as §1

soybean = test: Test B pre/postemergence soybean; assay type: in vivo, Glycine max
Summary of the method: as §1

sugar beet = test: Test B pre/postemergence sugar beet; assay type: in vivo, Beta vulgaris
Summary of the method: as §1

wheat = test: Test B pre/postemergence wheat; assay type: in vivo, Triticum aestivum
Summary of the method: as §1

purple nutsedge = test: Test B pre/postemergence purple nutsedge; assay type: in vivo, Cyperus rotundus
Summary of the method: as §1

rice = test: Test B flood test rice; assay type: in vivo, Oryza sativa
Summary of the method: (§2)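 Flood test on plants grown to the 2-leaf stage; treated plants kept in greenhouse twelve to sixteen days, then visually rated against controls on a 0 (no effect) to 10 (complete control) scale.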

smallflower flatsedge = test: Test B flood test smallflower flatsedge; assay type: in vivo, Cyperus difformis
Summary of the method: as §2

duck salad = test: Test B flood test duck salad; assay type: in vivo, Heteranthera limosa
Summary of the method: as §2

bamyardgrass = test: Test B flood test barnyardgrass; assay type: in vivo, Echinochloa crus-galli
Summary of the method: as §2

[1] = Postemergence, Rate 250 g/ha, scale 0 to 10
[2] = Postemergence, Rate 500 g/ha, scale of 0 to 10 where 0 is no effect and 10 is complete control
[3] = Preemergence, Rate 62 g/ha, scale of 0 to 10 where 0 is no effect and 10 is complete control
[4] = Preemergence, Rate 125 g/ha, scale of 0 to 10 where 0 is no effect and 10 is complete control
[5] = Preemergence, Rate 250 g/ha, scale 0 to 10, 0 is no effect, 10 is complete control
[6] = Preemergence, Rate 500 g/ha, scale 0 to 10, 0 is no effect, 10 is complete control
[7] = Rate 62 g/ha, Postemergence, scale 0 to 10 (0 no effect, 10 complete control)
[8] = Rate 125 g/ha, Postemergence, scale 0 to 10, 0 is no effect, 10 is complete control
[9] = Postemergence block (flood test species), Rate 250 g/ha, scale 0 to 10
[10] = Postemergence section (flood test species), Rate 500 g/ha, scale of 0 to 10 where 0 is no effect and 10 is complete control
[11] = Rate 62 g/ha, Postemergence (flood test), scale 0 to 10, 0 no effect, 10 complete control
[12] = Rate 125 g/ha, Postemergence section (flood test species), scale 0 to 10, 0 is no effect, 10 is complete control

SMILES: CC(C)N(C(=O)n1oc(=O)n(CC(=O)N(C)C)c1=O)c1ccc(F)cc1F [Compound 440]
- Blackgrass plant response rating (blackgrass; [1]): 4
- Blackgrass plant response rating (blackgrass; [2]): 8
- Plant response rating, Blackgrass (blackgrass; [3]): 2
- Plant response rating, Blackgrass (blackgrass; [4]): 6
- Blackgrass plant response rating (blackgrass; [5]): 10
- Blackgrass plant response rating (blackgrass; [6]): 10
- Blackgrass plant response rating (blackgrass; [7]): 0
- Blackgrass plant response rating (blackgrass; [8]): 0
- B. signalgrass plant response rating (surinam grass; Postemergence, Rate 250 g/ha, scale 0 to 10, 0 no effect, 10 complete control): 2
- B. signalgrass plant response rating (surinam grass; [2]): 8
- Plant response rating, B. signalgrass (surinam grass; [3]): 1
- Plant response rating, B. signalgrass (surinam grass; [4]): 4
- B. signalgrass plant response rating (surinam grass; [5]): 8
- B. signalgrass plant response rating (surinam grass; [6]): 8
- B. signalgrass plant response rating (surinam grass; [7]): 0
- B. signalgrass plant response rating (surinam grass; [8]): 0
- Cocklebur plant response rating (cocklebur; [1]): 0
- Cocklebur plant response rating (cocklebur; [2]): 0
- Plant response rating, Cocklebur (cocklebur; [4]): 0
- Cocklebur plant response rating (cocklebur; [5]): 0
- Cocklebur plant response rating (cocklebur; [6]): 0
- Cocklebur plant response rating (cocklebur; [7]): 0
- Cocklebur plant response rating (cocklebur; [8]): 0
- Corn plant response rating (corn; [1]): 0
- Corn plant response rating (corn; [2]): 0
- Plant response rating, Corn (corn; [3]): 0
- Plant response rating, Corn (corn; [4]): 0
- Corn plant response rating (corn; [5]): 0
- Corn plant response rating (corn; [6]): 0
- Corn plant response rating (corn; [7]): 0
- Corn plant response rating (corn; [8]): 0
- Crabgrass plant response rating (crabgrass; [1]): 9
- Crabgrass plant response rating (crabgrass; [2]): 9
- Plant response rating, Crabgrass (crabgrass; [3]): 7
- Plant response rating, Crabgrass (crabgrass; [4]): 7
- Crabgrass plant response rating (crabgrass; [5]): 10
- Crabgrass plant response rating (crabgrass; [6]): 10
- Crabgrass plant response rating (crabgrass; [7]): 1
- Crabgrass plant response rating (crabgrass; [8]): 2
- Giant foxtail plant response rating (giant foxtail; [1]): 9
- Giant foxtail plant response rating (giant foxtail; [2]): 9
- Plant response rating, Giant foxtail (giant foxtail; [3]): 6
- Plant response rating, Giant foxtail (giant foxtail; [4]): 6
- Giant foxtail plant response rating (giant foxtail; [5]): 10
- Giant foxtail plant response rating (giant foxtail; [6]): 10
- Giant foxtail plant response rating (giant foxtail; [7]): 0
- Giant foxtail plant response rating (giant foxtail; [8]): 4
- Redroot pigweed plant response rating (pigweed; [1]): 3
- Redroot pigweed plant response rating (pigweed; [2]): 4
- Plant response rating, Redroot pigweed (pigweed; [3]): 0
- Plant response rating, Redroot pigweed (pigweed; [4]): 4
- Redroot pigweed plant response rating (pigweed; [5]): 7
- Redroot pigweed plant response rating (pigweed; [6]): 10
- Redroot pigweed plant response rating (pigweed; [7]): 0
- Redroot pigweed plant response rating (pigweed; [8]): 1
- Rape plant response rating (rape; [1]): 0
- Rape plant response rating (rape; [2]): 0
- Plant response rating, Rape (rape; [3]): 0
- Plant response rating, Rape (rape; [4]): 0
- Rape plant response rating (rape; [5]): 3
- Rape plant response rating (rape; [6]): 3
- Rape plant response rating (rape; [7]): 0
- Rape plant response rating (rape; [8]): 0
- Soybean plant response rating (soybean; [1]): 6
- Soybean plant response rating (soybean; [2]): 7
- Plant response rating, Soybean (soybean; [3]): 0
- Plant response rating, Soybean (soybean; [4]): 0
- Soybean plant response rating (soybean; [5]): 0
- Soybean plant response rating (soybean; [6]): 0
- Soybean plant response rating (soybean; [7]): 5
- Soybean plant response rating (soybean; [8]): 6
- Sugarbeets plant response rating (sugar beet; [1]): 0
- Sugarbeets plant response rating (sugar beet; [2]): 2
- Plant response rating, Sugarbeets (sugar beet; [3]): 0
- Plant response rating, Sugarbeets (sugar beet; [4]): 0
- Sugarbeets plant response rating (sugar beet; [5]): 4
- Sugarbeets plant response rating (sugar beet; [6]): 7
- Sugarbeets plant response rating (sugar beet; [7]): 0
- Sugarbeets plant response rating (sugar beet; [8]): 0
- Wheat plant response rating (wheat; [1]): 0
- Wheat plant response rating (wheat; [2]): 4
- Plant response rating, Wheat (wheat; [3]): 0
- Plant response rating, Wheat (wheat; [4]): 0
- Wheat plant response rating (wheat; [5]): 5
- Wheat plant response rating (wheat; [6]): 7
- Wheat plant response rating (wheat; [7]): 0
- Wheat plant response rating (wheat; [8]): 0
- Nutsedge plant response rating (purple nutsedge; [1]): 0
- Nutsedge plant response rating (purple nutsedge; [2]): 0
- Plant response rating, Nutsedge (purple nutsedge; [3]): 0
- Plant response rating, Nutsedge (purple nutsedge; [4]): 0
- Nutsedge plant response rating (purple nutsedge; [5]): 0
- Nutsedge plant response rating (purple nutsedge; [7]): 0
- Nutsedge plant response rating (purple nutsedge; [8]): 0
- Rice plant response rating (rice; [9]): 0
- Rice plant response rating (rice; [10]): 0
- Rice plant response rating (rice; [11]): 0
- Rice plant response rating (rice; [12]): 0
- S. Flatsedge plant response rating (smallflower flatsedge; [9]): 0
- S. Flatsedge plant response rating (smallflower flatsedge; [10]): 0
- S. Flatsedge plant response rating (smallflower flatsedge; [11]): 0
- S. Flatsedge plant response rating (smallflower flatsedge; [12]): 0
- Ducksalad plant response rating (duck salad; [9]): 0
- Ducksalad plant response rating (duck salad; [10]): 0
- Ducksalad plant response rating (duck salad; [11]): 0
- Ducksalad plant response rating (duck salad; [12]): 0
- Barnyardgrass plant response rating (bamyardgrass; [9]): 0
- Barnyardgrass plant response rating (bamyardgrass; [10]): 0
- Barnyardgrass plant response rating (bamyardgrass; [11]): 0
- Barnyardgrass plant response rating (bamyardgrass; [12]): 0
